Assay results as given in US5858968A, “Method of treating or preventing type 1 diabetes by oral administration of insulin” (AutoImmune Inc., priority 1995, dated 1999).
Where “and” joins values, the source holds several entries; their conditions need not be identical. Identical values can stand only once. Entries after “also recorded” stand apart in the source; their conditions may differ.

What was measured:
Type in all cases: in vivo
[1] = system: NOD mice; assay: Glucose post oral insulin in fasting 7 week NOD mice; conditions: fasting 7 week old NOD mice
Protocol: In order to determine whether any endocrinologic (i.e. direct lowering of blood sugar) effects occurred following the feeding of insulin, 7 week old NOD mice (5 mice per group) were fed 1 mg of porcine insulin or 1 mg of myelin basic protein (obtained from Pel Freez, Rogers, Ariz.) as a control protein. Blood glucose was then measured over the next 24 hour period. As a positive control, a separate group of animals were injected subcutaneously with 20 micrograms of Porcine insulin. All animals were kept in the fasting state.

[2] = system: NOD mice; assay: Insulitis in NOD mice fed insulin (preliminary experiments); conditions: NOD mice fed 1 mg, vs PBS-fed NOD mice; data not shown
From the text: Therefore, oral administration of insulin to NOD mice appeared to be affecting the infiltration of immune system cells into the pancreas and thus halting disease progression by preserving beta cell function.

[3] = system: NOD mice; assay: Effect of feeding porcine insulin on spontaneous diabetes in NOD mice
From the text: NOD (non-obese diabetic mice) were obtained from Taconic Laboratories (Germantown, Mass.) at 4 weeks of age. There were a total of 30 animals in each of the groups mentioned below at the beginning of the experiment. At 4 1/2 weeks of age, animals were orally administered Porcine insulin (Novo Laboratories, Danbury, Conn.). Each animal received two treatments orally twice a week until 9 weeks of age. The mice were fed either saline (control) or 10 micrograms, 100 micrograms, or 1 milligram of Porcine insulin. The animals were fed (gavaged) with an 18 gauge ball-point needle (Popper and Sons, Inc., New Hyde Park, N.Y.). Beginning at 10 weeks the animals were then fed once a week for a total of 33 weeks. Beginning at 12 weeks the urine was tested weekly for the presence of glucose using Glucosuria test tape (Eli Lilly, Indianapolis, Ind.). If an animal tested 3+or higher on the glucose urine test, a serum sample was taken and blood glucose measured using a glucose analyzer (Beckman). If the blood glucose was 220 or higher, the animals were classified as diabetic and then sacrificed.

[4] = system: NOD mice; assay: Treatment of initial stages of diabetes in NOD mice; conditions: oral and aerosol administration, 0 to 1 mg, hyperglycemic NOD mice
Protocol: Insulin (0 to 1 mg as in Examples 1 and 2) will be administered to NOD mice which are suffering from hyperglycemia in an oral and aerosol form. The treatments will begin by weeks 12-20 of age, by which the serum glucose levels are at hyperglycemic concentrations in a certain percentage of animals prior to onset of diabetes.

[5] = subcutaneous injection of 20 micrograms

Row | Molecule | blood glucose after feeding ([1]; 1 mg oral) | blood glucose over the next 24 hours ([1]; 1 mg oral) | endocrinologic (metabolic) effects ([1]; 1 mg oral) | decrease in glucose level [1, 5] | period over which the glucose decrease persisted [1, 5] | inflammatory immune system cells surrounding the pancreas (insulitis) [2] | development of diabetes ([3]; NOD mice fed 1 mg insulin orally (gavage), vs saline control, diabetic = blood glucose 220 or higher) | development of diabetes ([3]; NOD mice fed 10 micrograms insulin orally, dose response fashion) | blood sugar in individual animals which developed diabetes ([3]; NOD mice fed 10 micrograms of insulin) | development of diabetes ([3]; NOD mice fed 100 micrograms insulin orally, dose response fashion) | blood sugar in individual animals that became diabetic ([3]; NOD mice fed 100 micrograms of insulin) | incidence of diabetes ([3]; NOD mice, all doses of orally administered insulin, dose-dependent) | treated animals that failed to develop diabetes ([3]; NOD mice, highest dose of oral insulin (1 mg)) | beta cell function [4] | serum glucose concentrations [4]
1 | insulin: Porcine insulin (Novo Laboratories, Danbury, Conn.), given orally by gavage, subcutaneously as positive control, or planned as aerosol | no drop in the blood glucose | gradual decrease in blood glucose | no endocrinologic (metabolic) effects | approximately 80 mg % | 4 h | fewer inflammatory immune system cells surrounding the pancreas | none of the mice went on to develop diabetes; also recorded: no diabetes developed; also recorded: None of the animals developed diabetes | diabetes developed | 330 mg/dL and 420 mg/dL and 315 mg/dL and 459 mg/dL and 520 mg/dL and 487 mg/dL | diabetes developed | 500 mg/dL and 290 mg/dL and 600 mg/dL and 450 mg/dL | lower incidence of diabetes; also recorded: reduced the numbers of these mice which subsequently went on to develop diabetes | 100% | preservation of beta cell function | reduction in serum glucose concentrations to near normal levels
2 | myelin basic protein: myelin basic protein (obtained from Pel Freez, Rogers, Ariz.) fed as a control protein (protein, UniProt P02686 1-304, looked up) Myelin basic protein: MGNHAGKRELNAEKASTNSETNRGESEKKRNLGELSRTTSEDNEVFGEADANQNNGTSSQDTAVTDSKRTADPKNAWQDAHPADPGSRPHLIRLFSRDAPGREDNTFKDRPSESDELQTIQEDSAATSESLDVMASQKRPSQRHGSKYLATASTMDHARHGFLPRHRDTGILDSIGRFFGGDRGAPKRGSGKDSHHPARTAHYGSLPQKSHGRTQDENPVVHFFKNIVTPRTPPPSQGKGRGLSLSRFSWGAEGQRPGFGYGGRASDYKSAHKGFKGVDAQGTLSKIFKLGGRDSRSGSPMARR | no drop in the blood glucose | gradual decrease in blood glucose | – | – | – | – | – | – | – | – | – | – | – | – | –
